Results reported in US12318373B2, “Methods of treating gastrointestinal stromal tumors” (Deciphera Pharmaceuticals, LLC, priority 2019, dated 2025).

What was measured:
[1] = Example 7: coadministration with strong CYP3A inhibitor (itraconazole), exposure; assay type: in vivo; settings: coadministration of ripretinib with itraconazole
[2] = Example 8: coadministration with proton-pump inhibitor (pantoprazole), exposure; assay type: in vivo; settings: ripretinib coadministered with pantoprazole
Description: The effect of a proton-pump inhibitor on the exposure of ripretinib was evaluated.

[3] = Example 9: food effect (high-fat meal) on exposure; assay type: in vivo; settings: 150 mg dose with a high-fat meal
Description: The effect of a high-fat breakfast on ripretinib and Compound A exposure was evaluated. A high fat meal consisted of approximately 150, 250, and 500-600 calories from protein, carbohydrate, and fat, respectively. […] Therefore, ripretinib may be taken with or without food at approximately same time each day.

[4] = test system: GIST with KIT exon 11 primary mutations; settings: cited from earlier work

Structure (SMILES) | Increase in AUC0-inf [1] [%] | Increase in Cmax [1] | Difference in plasma exposure [2] | AUC0-24h higher by [3] [%] | Cmax higher by [3] [%] | 2-year relapse-free survival ([4]; adjuvant setting) [%] | Median event-free survival ([4]; metastatic setting)
CCn1c(=O)c(-c2cc(NC(=O)Nc3ccccc3)c(F)cc2Br)cc2cnc(N)cc21 [Compound A] | 99 | no change | No clinically significant differences | 47 | 66 |  | 
Cc1ccc(NC(=O)c2ccc(CN3CCN(C)CC3)cc2)cc1Nc1nccc(-c2cccnc2)n1 [imatinib] |  |  |  |  |  | ~90 | under 2 years
